Measured values published in patent US7045307B2, “Method for measuring no synthase activity” (Gruenenthal GmbH, priority 2000, dated 2006).

How the values were obtained:
[1] = biological target: T1, isolated nNOS from rat cerebella (Rattus norvegicus, UniProt P29476); test: Citrulline assay according to Bredt and Snyder (1990), separation by column chromatography; assay type: biochemical; conditions: [3H]arginine 50 nM
Description: On completion of the reaction the enzyme mixtures are passed over separate cation exchange columns. Elution of the [^3H]L-citrulline and determination of the eluates then takes place on a β-counter. The disadvantage of this method is that column chromatography has to take place separately for each enzyme mixture (e.g. 96 chromatography columns are needed per 96 well microtiter plate).
The precipitate is discarded.
The separation was effected by means of column chromatography.

[2] = biological target: T1, isolated nNOS from rat cerebella; test: Arginine assay according to the invention (HTS NOS assay, cation exchanger filter MTP)

Structure (SMILES): FC(F)(F)c1ccccc1-n1ccnc1 [TRIM, 1-(2-trifluormethylphenyl)imidazole]
- IC50 [1]: > 100 µM
- IC50 ([2]; read-out: IC50 value, Arginine assay according to the invention as in Example 4, [3H]arginine 50 nM, nNOS from rat cerebella, 96 well cation exchanger filter MTP): > 100 µM

Structure (SMILES): C=CCC(=N)NCCC[C@H](N)C(=O)O [Vinyl L-NIO, N5-(1-imino-3-butenyl)-L-ornithine]
- IC50 [1]: 5.57 µM
- IC50 [2]: 5.02 µM

Structure (SMILES): O=[N+]([O-])c1cccc2cn[nH]c12 [7-Nitroindazole, 7-nitroindazole]
- inhibition at 10 µM ([2]; read-out: NOS inhibition): ~50%
